Where a SMILES comes first, the peptide text is derived from it.
Row | SMILES | logP
1 | C#CCC(O)(CC#C)c1cccnc1 | 1.29
2 | CCNC(=O)c1cc(Cl)cc(C)c1O | 3.55
3 | NCCc1cnc[nH]1 | -0.7
4 | COc1ccc(C(O)(Cn2ccnc2)c2ccc(-c3ccncc3)cc2)cc1 (centres undefined) | 3.55
5 | CCOP(=O)(NC)ON=C(C#N)c1ccc(Cl)cc1 (centres undefined) | 2.5
6 | COC(=O)c1ccc(CN(C)N=O)cc1 | 1.21
7 | O=c1[nH]c(-c2ccccc2)nc2nn[nH]c12 | 1.27
8 | COc1cc(CCN)cc(OC)c1OCc1ccccc1 | 2.4
9 | CSc1cnc2ccccc2n1 | 2.79
10 | CCOCCNCC(O)COc1ccc(-c2ncc(-c3cccs3)[nH]2)cc1 (centres undefined) | 2.25
11 | CCCCOCC(O)Cn1ccnc1[N+](=O)[O-] (centres undefined) | 1.11
12 | O=C(O)c1ccc(Cl)cc1Nc1ccc(Cl)cc1 | 4.97
13 | CNC(=O)Oc1ccc(N(C)C)c(C)c1 | 1.9
14 | O=C(O)/C=C/Oc1ccc(Cl)cc1Cl | 3.46
15 | O=C1CC(c2ccccc2)c2ccccc2N1 (centres undefined) | 2.79
16 | Cc1ccccc1C(=O)c1ccc2n1CCC2C(=O)O (centres undefined) | 2.9
17 | CN1CCC(=C2c3ccccc3C=Cc3ccccc32)CC1 | 4.69
18 | C=C(C)C(=O)OCCCOC(=O)C(=C)C | 1.86
19 | CCCCCCC(C)(C)c1cc(O)c2c(c1)OC(C)(C)C1CCC(C=O)=CC21 (centres undefined) | 8.03
20 | CC1CCC(c2ccccc2)(N2CCCCC2)CC1 (centres undefined) | 5.66
21 | CCCCc1cc(OC)c(CC(C)N)cc1OC (centres undefined) | 4
22 | CC(=Cc1ccccc1)C(=O)O | 2.6
23 | CN(C)c1nc(N(C)C)nc(N(C)O)n1 | 1.61
24 | CCCCCCC(C)(C)c1ccc(C2CC(O)CCC2C)c(O)c1 (centres undefined) | 7.49

Row | SMILES | logP
25 | CN(C)c1ccc(C(O)(Cn2ccnc2)c2ccc(-c3ccncc3)cc2)cc1 (centres undefined) | 3.29
26 | CC(C)(C)c1cccc(O)c1 | 3.3
27 | CC(N)CC1CCCCC1 (centres undefined) | 2.96
28 | CC(=O)c1nc([N+](=O)[O-])n(CC(C)O)c1C (centres undefined) | 0.37
29 | O=Nc1ccc(O)c(=O)cc1 | 0.83
30 | CCc1ccc(C)cc1 | 3.63
31 | Clc1ccc(Cl)c(-c2ccccc2)c1 | 5.1
32 | Cc1c2ccccc2c(C)c2ccccc12 | 5.69
33 | O=C(NN1CC=CCC1)c1ccco1 | 0.81
34 | c1ccc2cc3cc4ccccc4cc3cc2c1 | 5.76
35 | Cc1ncsc1CCCl | 2.12
36 | Nc1nc(-c2ccccn2)cc2ccccc12 | 2.74
37 | O=C(O)C1CCc2cc(Cl)ccc2O1 (centres undefined) | 2.4
38 | CC1=C(C(=O)Nc2ccccc2)S(=O)CCO1 (centres undefined) | 0.64
39 | Cc1ccc(Cl)c(N=C2NCCN2)c1 | 1.83
40 | Cc1ccc2[nH]c(=O)nc(-c3ccccc3)c2c1 | 2.32
41 | CCc1ccc(C2C(=O)c3ccccc3C2=O)cc1 | 3.92
42 | NC1CC1c1ccccc1 (centres undefined) | 1.58
43 | COc1cc(OC)cc(C2C(=O)c3ccccc3C2=O)c1 | 2.86
44 | Oc1ccc2cc(O)ccc2c1 | 1.9
45 | CC(=O)O[C@]1(C(=O)CO)CC[C@H]2[C@@H]3CCC4=CC(=O)CC[C@]4(C)[C@H]3[C@@H](O)C[C@@]21C | 2.3
46 | Cc1cccc(C)c1NC(=O)CN | 0.41
47 | O=C(c1ccc(F)cc1)c1ccc2n1CCC2C(=O)O (centres undefined) | 2.82
48 | COc1c(Br)cc(Br)cc1Br | 4.48

Row | SMILES | logP
49 | CC(=O)c1ccccc1Br | 2.28
50 | Cc1c2ccccc2cc2ccccc12 | 5.07
51 | CCOC(=O)C(C(=O)OCC)=C1SCCS1 | 2.45
52 | CCOc1cccc(NC(=O)CN2CCCCC2)c1 | 3.17
53 | C[C@H]1O[C@@H](O[C@H]2[C@@H](O)C[C@H](O[C@H]3[C@@H](O)C[C@H](O[C@H]4CC[C@@]5(C)[C@H](CC[C@@H]6[C@@H]5CC[C@]5(C)[C@@H](C7=CC(=O)OC7)CC[C@]65O)C4)O[C@@H]3C)O[C@@H]2C)C[C@H](O)[C@@H]1O | 1.85
54 | CC(C)C(=O)O | 0.94
55 | CC1=CC(=O)C(C(C)C)=CC1=O | 2.2
56 | Clc1ccc(-c2ccccc2)c(Cl)c1 | 5.16
57 | CCCCCC(=O)OCC(Cc1cncn1C)C(CC)C(=O)OCc1ccccc1 (centres undefined) | 4.75
58 | Cc1ccc(S(=O)(=O)NC(=O)NN2CCCCCC2)cc1 | 2.69
59 | CCCC(=O)OCC(=O)C1(O)CCC2C3CCC4=CC(=O)CCC4(C)C3C(O)CC21C (centres undefined) | 2.91
60 | COc1ncnc2c1ncn2C1OC(CO)C(OC(=O)Cc2ccccc2)C1OC(=O)Cc1ccccc1 (centres undefined) | 3.48
61 | Cc1cc(N=O)ccc1O | 1.71
62 | O=C(O)c1ccc(O)c(Cl)c1 | 2.41
63 | CCc1ccc(CC(=O)O)cc1 | 2.25
64 | CC(=O)NCC(=O)N[C@H](C(N)=O)C(C)C (Ac-Gly-Val-NH2) | -1.33
65 | CCC1(c2ccccc2)C(=O)NC(=O)N=C1OC(C)C (centres undefined) | 2.22
66 | CN(C)c1ccc2ccccc2n1 | 2.81
67 | OCc1cc(Cl)ccc1O | 1.44
68 | OC(CCN1CCCCC1)(c1ccccc1)C1CC2C=CC1C2 (centres undefined) | 4.25
69 | O=C1CCc2ccccc2N1 | 1.34
70 | O=[N+]([O-])c1ccc(Cc2ccncc2)cc1 | 2.88
71 | CC(C)NCC(O)COc1cccc(CC(N)=O)c1 (centres undefined) | 0.22
72 | C=CCC(NC(=O)C(Cc1ccccc1)NS(=O)(=O)N1CCOCC1)C(=O)NC(COC(F)(F)C(=O)NCCN1CCOCC1)CC1CCCCC1 (centres undefined) | 3.17

Row | SMILES | logP
73 | Cc1cc(Br)cc(C(=O)NC(C)C)c1O | 4.19
74 | Cc1cc(C)cc(C2C(=O)c3ccccc3C2=O)c1 | 4.02
75 | Cc1cc2occc2c2oc(=O)ccc12 | 2.41
76 | CCCCc1ccncc1 | 3.13
77 | COc1cccc(/C=C/C(=O)O)c1 | 2.37
78 | CCCCCc1cc(O)c2c(c1)OC(C)(C)[C@@H]1CCC(CO)=C[C@@H]21 | 5.33
79 | CNC(=O)OC1OC(=O)C2C3C=CC(C3)C12 (centres undefined) | 0.63
80 | O=C(Cn1ccnc1[N+](=O)[O-])NCc1ccccc1 | 0.91
81 | CC(=O)Oc1cccc(OC(C)=O)c1C(N)=O | -0.62
82 | CCCCCC(CCC)C(=O)O (centres undefined) | 3.2
83 | O=C(NC12CC3CC(CC(C3)C1)C2)C(O)c1ccccc1 (centres undefined) | 3.09
84 | CC1OC(OC2C(O)CC(OC3C(O)CC(OC4CCC5(C)C(CCC6C5CCC5(C)C(C7=CC(=O)OC7)C(O)CC65O)C4)OC3C)OC2C)CC(O)C1O (centres undefined) | 1.67
85 | CCOc1ccc(Cc2cnc(N)nc2N)cc1OCC | 1.72
86 | CC(=O)Nc1c(I)c(C(=O)N(C)CC(O)CO)c(I)c(C(=O)N(C)CC(O)CO)c1I (centres undefined) | -2.71
87 | Cc1cccc(N=C2NCCN2)c1Cl | 1.83
88 | c1ccc(-c2cnc3ccccc3n2)cc1 | 3.48
89 | COC(=O)CCC(C)=O | -0.13
90 | Cc1c(Br)cccc1N=C1NCCN1 | 1.94
91 | CC1CC2C3CC(F)C4=CC(=O)C(Cl)=CC4(C)C3(Cl)C(O)CC2(C)C1(O)C(=O)COC(=O)C(C)(C)C (centres undefined) | 4.73
92 | O=C(OOC(=O)c1ccccc1)c1ccccc1 | 3.46
93 | C=C(C)C(=O)OCC(O)COc1ccccc1 (centres undefined) | 2.27
94 | CC(CC(=O)O)CC(=O)c1ccc(-c2ccccc2)cc1 (centres undefined) | 3.82
95 | CC1CCC2C(C)C(OC(=O)Oc3ccccc3)OC3OC4(C)CCC1C32OO4 (centres undefined) | 4.41
96 | O=Cc1cccc(Cl)c1 | 2.26

Row | SMILES | logP
97 | COCC(O)Cn1cc(Br)nc1[N+](=O)[O-] (centres undefined) | 0.46
98 | CCOC(=O)CNC(=O)CCCCSc1ncnc2nc[nH]c12 | 0.91
99 | O=C(NN1CC=CCC1)c1cccs1 | 1.88
100 | C=C(C)C(=O)OCc1ccccc1 | 2.53
101 | CC(C)N1C(=O)SC(=Cc2ccc([N+](=O)[O-])o2)C1=O | 2.42
102 | Cc1cc(C)c(O)c(C)c1 | 2.73
103 | NS(=O)(=O)c1ccc(Cl)c(Cl)c1 | 1.44
104 | CC(C(=O)NCC(O)CO)n1ccnc1[N+](=O)[O-] (centres undefined) | -1.64
105 | c1ccc2c(c1)Cc1c-2ccc2ccccc12 | 5.4
106 | Nc1ncc(Cc2cccc(Cl)c2)c(N)n1 | 2.29
107 | COc1cc(Cc2cnc(N)nc2N)ccc1N(C)C | 1.87
108 | CCCCCCCCCCOc1ccc(C(=O)O)cc1 | 6.29
109 | C=C(C)C(=O)OC1CC2=CC(CC3(C)OC3C3OC(=O)C(=C)C13)OC2=O (centres undefined) | 0.69
110 | Cn1c([N+](=O)[O-])cnc1C=Cc1ccncn1 | 0.85
111 | Clc1cccc(-c2cccc(Cl)c2)c1 | 5.27
112 | OCc1ccccc1C(c1ccc(O)cc1)c1ccc(O)cc1 | 3.27
113 | C#CC1(O)C(F)CC2C3CCc4cc(O)ccc4C3CCC21C (centres undefined) | 3.3
114 | Fc1cccc(N=C2NCCN2)c1Cl | 1.52
115 | CCCOc1ccc(Cc2cnc(N)nc2N)cc1OC | 2.02
116 | CCN(CC)CCCN(C(=O)Cc1ccccc1)c1c(C)cccc1C | 4.94
117 | Cc1cccc(C2C(=O)c3ccccc3C2=O)c1 | 3.46
118 | CCCN(C(C)=O)C(C)C | 1.48
119 | CCCCCCc1ccc(CC(=O)O)cc1 | 4.25
120 | COc1cccc2c1C(=O)c1c(O)c3c(c(O)c1C2=O)CC(O)(C(C)=O)CC3OC1CC(N2CCOCC2)C(O)C(C)O1 (centres undefined) | 2.31

Row | SMILES | logP
121 | CC1(C)NC(=Nc2ncc([N+](=O)[O-])s2)OC1(C)C | 2.4
122 | CCc1cc(CC)cc(C2C(=O)c3ccccc3C2=O)c1 | 4.94
123 | O=C(CBr)c1ccccc1 | 2.19
124 | C=C(C)C(=O)OCCOCCOCCOC(=O)C(=C)C | 1.88
125 | C#C[C@]1(O)CC[C@H]2[C@@H]3CCc4cc(O)ccc4[C@H]3[C@@H](OC)C[C@@]21C | 3.01
126 | Fc1ccc(F)c(F)c1 | 2.52
127 | O=C1C2C3C=CC(C3)C2C(=O)N1CCCCN1CCN(c2ncccn2)CC1 (centres undefined) | 1.36
128 | C=CCC(NC(=O)C(Cc1ccccc1)NS(=O)(=O)N1CCOCC1)C(=O)NC(CC1CCCCC1)C(=O)C(F)(F)C(=O)NCCN1CCOCC1 (centres undefined) | 3.39
129 | COC(=O)C1=C(C)NC(C)=C(C(=O)OCCN(C)Cc2ccccc2)C1c1cccc([N+](=O)[O-])c1 (centres undefined) | 3.82
130 | O=C(O)C=Cc1ccc2c(c1)OCO2 | 2.59
131 | OCc1cc(Br)ccc1O | 1.72
132 | CCN1CC(C(O)C(CC2CCCCC2)NC(=O)C(Cc2cnc[nH]2)NC(=O)C(Cc2ccc(OC)cc2)NC(=O)N2CCOCC2)OC1=O (centres undefined) | 2.11
133 | OC(CNCCc1ccncc1)COc1ccc(-c2ncc(-c3cccs3)[nH]2)cc1 (centres undefined) | 2.25
134 | CC(C)c1cccc(C(C)C)c1NC1=NCCN1 | 3.04
135 | Cc1cc(Br)cc(C(N)=O)c1O | 2.76
136 | C=C1C(=O)O[C@H]2[C@H]1[C@H](OC(=O)/C(C)=C\C)CC(=C)[C@@H]1[C@H](O)[C@H]3O[C@@]3(C)[C@@]12O | 1.69
137 | Cc1ncc(NS(=O)(=O)c2ccc(N)cc2)c(C)n1 | 0.59
138 | COCc1ccc(C#N)cc1 | 1.23
139 | CCCCCCCCC=CCCCCCCCC(=O)O | 7.64
